In ChEMBL document CHEMBL4219045 (Bioorg Med Chem, 2018):
Positions of bridges follow the written chain, without caps; N, C: chain ends. Residues, ends and D or L forms follow the SMILES beside them.

Columns and labels:
[1] = molecular target: Sodium channel protein type 2 subunit alpha (Homo sapiens, UniProt Q99250); test: Inhibition of Nav1.2 (unknown origin) expressed in xenopus oocytes at -80 mV holding potential by two-electrode voltage-clamp method; assay type: cell-based
[2] = molecular target: Sodium channel protein type 5 subunit alpha (Homo sapiens, UniProt Q14524); test: Inhibition of Nav1.5 (unknown origin) expressed in xenopus oocytes at -80 mV holding potential by two-electrode voltage-clamp method; assay type: cell-based
[3] = molecular target: Sodium channel protein type 8 subunit alpha (Homo sapiens, UniProt Q9UQD0); test: Inhibition of Nav1.6 (unknown origin)
[4] = molecular target: Acetylcholine receptor subunit epsilon (Homo sapiens, UniProt Q04844); test: Inhibition of nAChR epsilon (unknown origin)
Sequence of Acetylcholine receptor subunit epsilon (Q04844 whole entry): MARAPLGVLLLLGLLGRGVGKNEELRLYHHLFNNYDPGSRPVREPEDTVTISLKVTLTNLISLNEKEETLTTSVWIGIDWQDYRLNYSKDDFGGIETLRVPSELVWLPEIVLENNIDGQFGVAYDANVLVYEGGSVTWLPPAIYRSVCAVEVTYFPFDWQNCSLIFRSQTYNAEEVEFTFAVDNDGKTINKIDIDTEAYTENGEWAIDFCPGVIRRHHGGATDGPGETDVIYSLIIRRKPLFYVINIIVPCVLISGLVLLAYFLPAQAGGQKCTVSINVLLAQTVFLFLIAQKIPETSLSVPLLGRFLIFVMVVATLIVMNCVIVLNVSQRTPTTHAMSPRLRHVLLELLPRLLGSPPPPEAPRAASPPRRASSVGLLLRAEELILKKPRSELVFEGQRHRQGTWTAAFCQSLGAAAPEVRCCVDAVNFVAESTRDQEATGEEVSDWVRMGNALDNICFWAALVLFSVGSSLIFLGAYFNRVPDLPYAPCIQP

[5] = Toxicity in mouse; assay type: organism-based; settings: in vivo
[6] = molecular target: T1, Transient receptor potential cation channel subfamily V member 6 (Homo sapiens, UniProt Q9H1D0); test: Inhibition of TRPV6 (unknown origin) expressed in HEK293 cells by whole cell patch clamp assay; assay type: cell-based
T1 sequence (Q9H1D0 whole entry): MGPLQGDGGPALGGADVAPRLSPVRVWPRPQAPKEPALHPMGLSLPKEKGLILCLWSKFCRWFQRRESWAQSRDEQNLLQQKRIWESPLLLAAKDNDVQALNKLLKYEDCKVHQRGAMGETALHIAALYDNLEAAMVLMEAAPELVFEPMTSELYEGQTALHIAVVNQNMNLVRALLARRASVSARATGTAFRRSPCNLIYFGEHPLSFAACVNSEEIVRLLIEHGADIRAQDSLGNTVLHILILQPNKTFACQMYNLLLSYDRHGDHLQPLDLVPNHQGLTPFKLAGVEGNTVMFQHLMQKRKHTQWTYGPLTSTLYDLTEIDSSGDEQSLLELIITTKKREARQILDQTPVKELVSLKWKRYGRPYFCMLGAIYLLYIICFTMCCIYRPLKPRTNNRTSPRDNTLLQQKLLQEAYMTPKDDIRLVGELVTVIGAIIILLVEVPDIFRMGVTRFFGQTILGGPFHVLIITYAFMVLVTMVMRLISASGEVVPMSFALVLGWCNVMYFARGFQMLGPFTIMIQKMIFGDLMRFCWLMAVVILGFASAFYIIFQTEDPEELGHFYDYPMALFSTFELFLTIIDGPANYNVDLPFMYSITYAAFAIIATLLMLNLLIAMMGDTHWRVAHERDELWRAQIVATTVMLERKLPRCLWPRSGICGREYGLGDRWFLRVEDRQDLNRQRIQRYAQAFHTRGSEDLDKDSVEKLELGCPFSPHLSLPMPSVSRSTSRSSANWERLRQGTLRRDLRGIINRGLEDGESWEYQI

[7] = molecular target: DPP4 (dipeptidyl peptidase 4) (Homo sapiens, UniProt P27487); test: Stability in plasma (unknown origin) assessed as DPP4-mediated drug degradation by measuring half life; assay type: ADME
Sequence of DPP4 (dipeptidyl peptidase 4) (P27487 whole entry): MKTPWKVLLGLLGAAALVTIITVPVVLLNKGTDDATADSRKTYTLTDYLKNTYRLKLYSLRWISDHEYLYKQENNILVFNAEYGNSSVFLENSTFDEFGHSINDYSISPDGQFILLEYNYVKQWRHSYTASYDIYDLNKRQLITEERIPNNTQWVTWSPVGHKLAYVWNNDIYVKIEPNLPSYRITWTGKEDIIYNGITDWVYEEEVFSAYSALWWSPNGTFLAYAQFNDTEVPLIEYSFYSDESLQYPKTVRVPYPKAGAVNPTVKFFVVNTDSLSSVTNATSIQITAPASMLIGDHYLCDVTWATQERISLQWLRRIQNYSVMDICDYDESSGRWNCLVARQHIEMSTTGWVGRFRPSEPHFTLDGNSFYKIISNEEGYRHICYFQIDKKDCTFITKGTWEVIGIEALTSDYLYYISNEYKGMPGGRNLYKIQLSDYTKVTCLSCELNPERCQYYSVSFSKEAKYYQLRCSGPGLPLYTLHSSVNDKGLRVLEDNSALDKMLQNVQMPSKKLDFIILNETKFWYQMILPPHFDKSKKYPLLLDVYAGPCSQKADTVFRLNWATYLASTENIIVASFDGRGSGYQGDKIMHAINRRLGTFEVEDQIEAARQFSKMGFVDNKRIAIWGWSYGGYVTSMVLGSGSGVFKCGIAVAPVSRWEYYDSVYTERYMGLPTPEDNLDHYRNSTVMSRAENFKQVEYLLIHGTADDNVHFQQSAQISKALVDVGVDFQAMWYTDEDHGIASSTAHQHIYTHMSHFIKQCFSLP

Sequence of Sodium channel protein type 2 subunit alpha (Q99250 whole entry): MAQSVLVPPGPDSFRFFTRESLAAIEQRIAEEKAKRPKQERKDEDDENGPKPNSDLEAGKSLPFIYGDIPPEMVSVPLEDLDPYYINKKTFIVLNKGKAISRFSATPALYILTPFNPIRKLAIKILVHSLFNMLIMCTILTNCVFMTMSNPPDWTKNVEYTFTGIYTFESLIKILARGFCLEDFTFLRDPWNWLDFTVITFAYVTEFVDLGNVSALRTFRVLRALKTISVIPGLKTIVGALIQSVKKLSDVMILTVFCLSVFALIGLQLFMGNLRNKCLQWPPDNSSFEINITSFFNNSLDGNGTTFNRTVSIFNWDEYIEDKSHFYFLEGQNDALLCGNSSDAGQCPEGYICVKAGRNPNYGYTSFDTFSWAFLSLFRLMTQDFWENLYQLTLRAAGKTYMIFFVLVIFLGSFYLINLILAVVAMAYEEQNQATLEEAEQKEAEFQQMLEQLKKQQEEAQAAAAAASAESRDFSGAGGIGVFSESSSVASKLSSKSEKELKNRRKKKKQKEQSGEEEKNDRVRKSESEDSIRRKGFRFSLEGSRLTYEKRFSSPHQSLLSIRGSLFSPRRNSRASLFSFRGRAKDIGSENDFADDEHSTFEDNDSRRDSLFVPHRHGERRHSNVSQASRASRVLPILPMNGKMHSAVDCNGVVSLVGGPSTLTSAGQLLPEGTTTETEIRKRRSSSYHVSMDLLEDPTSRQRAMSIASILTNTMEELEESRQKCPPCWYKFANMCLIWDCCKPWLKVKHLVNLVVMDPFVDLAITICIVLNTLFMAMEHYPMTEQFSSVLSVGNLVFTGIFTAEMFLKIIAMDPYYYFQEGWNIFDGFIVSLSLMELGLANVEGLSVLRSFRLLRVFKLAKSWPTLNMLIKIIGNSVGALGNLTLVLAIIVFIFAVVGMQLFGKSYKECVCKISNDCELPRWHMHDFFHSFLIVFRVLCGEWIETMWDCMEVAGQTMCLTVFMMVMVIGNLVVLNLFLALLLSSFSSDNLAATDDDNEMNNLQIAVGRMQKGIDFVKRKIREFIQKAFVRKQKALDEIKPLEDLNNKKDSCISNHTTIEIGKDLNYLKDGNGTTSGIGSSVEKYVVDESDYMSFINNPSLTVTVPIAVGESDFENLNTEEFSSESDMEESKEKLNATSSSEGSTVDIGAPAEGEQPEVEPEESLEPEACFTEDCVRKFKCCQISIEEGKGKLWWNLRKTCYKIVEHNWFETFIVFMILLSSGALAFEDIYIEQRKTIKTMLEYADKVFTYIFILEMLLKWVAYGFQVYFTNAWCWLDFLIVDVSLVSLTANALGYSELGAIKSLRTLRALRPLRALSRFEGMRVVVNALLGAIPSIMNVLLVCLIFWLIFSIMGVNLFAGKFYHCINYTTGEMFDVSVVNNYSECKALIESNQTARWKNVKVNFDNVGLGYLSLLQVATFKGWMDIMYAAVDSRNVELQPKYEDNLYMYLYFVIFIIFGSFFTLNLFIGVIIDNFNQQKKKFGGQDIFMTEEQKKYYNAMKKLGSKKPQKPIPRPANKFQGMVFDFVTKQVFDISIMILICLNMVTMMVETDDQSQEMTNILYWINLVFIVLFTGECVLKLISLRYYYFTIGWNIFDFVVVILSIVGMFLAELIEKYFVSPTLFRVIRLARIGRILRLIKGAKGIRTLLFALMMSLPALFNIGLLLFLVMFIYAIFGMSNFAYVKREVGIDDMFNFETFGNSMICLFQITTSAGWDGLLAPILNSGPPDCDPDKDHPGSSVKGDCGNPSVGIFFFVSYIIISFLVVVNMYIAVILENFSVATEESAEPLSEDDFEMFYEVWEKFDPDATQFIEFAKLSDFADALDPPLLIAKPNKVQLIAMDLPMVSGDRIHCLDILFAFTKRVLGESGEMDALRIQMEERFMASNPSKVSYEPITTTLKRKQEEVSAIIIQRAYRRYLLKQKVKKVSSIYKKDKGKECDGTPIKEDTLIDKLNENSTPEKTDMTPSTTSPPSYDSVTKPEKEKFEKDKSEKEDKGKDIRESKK

Which IC50 [1] does the source give for `CSCC[C@@H]1NC(=O)CNC(=O)[C@H](CCC(=O)O)NC(=O)[C@@H]2CSSC[C@H](NC(=O)[C@@H](N)Cc3ccc(O)cc3)C(=O)N[C@@H](CCC(N)=O)C(=O)N[C@@H](CCCCN)C(=O)N[C@@H](Cc3c[nH]c4ccccc34)C(=O)N[C@@H](CCSC)C(=O)N[C@@H](Cc3c[nH]c4ccccc34)C(=O)N[C@@H]([C@@H](C)O)C(=O)N[C@H]3CSSC[C@H](NC(=O)[C@H](C(C)C)NC1=O)C(=O)N[C@@H](CCCNC(=N)N)C(=O)N[C@@H](CC(C)C)C(=O)N[C@@H](Cc1c[nH]c4ccccc14)C(=O)N[C@H](C(=O)N[C@@H](CCCCN)C(=O)N[C@@H](CCCCN)C(=O)N[C@@H](CCCCN)C(=O)N[C@@H](CC(C)C)C(=O)N[C@@H](Cc1c[nH]c4ccccc14)C(=O)O)CSSC[C@H](NC(=O)[C@H](CCCCN)NC(=O)[C@H](CCCNC(=N)N)NC(=O)[C@H](CCC(=O)O)NC(=O)[C@H](CO)NC(=O)[C@H](CC(=O)O)NC3=O)C(=O)N2` here?
Its IC50 is 41 nM.

And the IC50 [2]?
The IC50 was 79 nM.

And the IC50 [3]?
Its IC50 is 26 nM.

With `CC[C@H](C)[C@H](NC(=O)[C@H](Cc1ccc(O)cc1)NC(=O)[C@H](Cc1cnc[nH]1)NC(=O)[C@@H]1CSSC[C@H](NC(=O)[C@@H]2CCCN2C(=O)[C@H](CCCNC(=N)N)NC(=O)[C@H](CC(C)C)NC(=O)[C@H](CC(=O)O)NC(=O)[C@@H]2CCCN2C(=O)[C@H](CCCCN)NC(=O)CNC(=O)CN)C(=O)N[C@@H](Cc2cnc[nH]2)C(=O)N2CCC[C@H]2C(=O)N2CCC[C@H]2C(=O)N1)C(=O)N1CCC[C@H]1C(=O)N[C@@H](CCCNC(=N)N)C(=O)N1CCC[C@H]1C(=O)N[C@@H](CCCCN)C(=O)N1CCC[C@H]1C(=O)N[C@@H](CCCNC(=N)N)C(=O)O` (H-GGKPDLRPCHPPCHYIPRPKPR-OH; disulfide 9-13) as the molecule, how does the IC50 [4] read?
Its IC50 is 50 nM.

What about the LD50 [5] of the same molecule?
The LD50 was 0.33 mg/kg.

For H-KEFLHPSKVDLPR-OH [SOR-C13], which IC50 [6] is on record?
The IC50 was 14 nM.

With “H-SDGTFTSDLSKQMEEEAVRLFIEWLKNGGPSGAPPPS-NH2” as the molecule, how does the half-life [7] read?
The half-life was 2 min.
